Measured values from patent US7198946B2, “Screening for agents effective in decreasing abnormal macrophages associated with amyotrophic lateral sclerosis” (Pathologica, LLC, priority 2001, dated 2007).

Test system: CD14+ circulating monocytes from ALS patients
Test: Effect of polyamine analogs on CD14+ monocytes in cultured PBMCs, anti-CD14 flow cytometry
Assay type: cell-based, human
Details: 1.0 μM SL-11047, 6 days incubation; 6 ALS patients vs 1 normal subject and 1 MS patient (FIG. 5)
From the text: Peripheral blood mononuclear cells (PBMCs) are isolated from heparin-treated whole blood by layering over Percoll, density 1.087, (Pharmacia, Piscataway, N.J.) and followed by centrifugation at 800×g. The cells that collect at the Percoll/plasma interface are harvested and washed with 0.01 M phosphate-buffered saline (PBS). Isolated cells are then suspended in RPMI 1640 culture medium, with 10% fetal bovine serum, at a concentration of about 1×10^6 cells/ml. Cells are allocated to polyvinyl culture tubes at 1 ml/tube. A polyamine analog such as SL-11047 is added to 3 tubes, to achieve final concentrations of 1.0, 0.1, and 0.01 micromolar. A fourth tube, for control, receives no (zero) drug. […]
On the […] of incubation, cells are removed from the incubator, washed with PBS and resuspended in PBS at 0.1 ml/tube. Detection of monocytes is detected by addition of fluorescein-conjugated anti-CD14 (DAKO Corp., Carpenteria, Calif.), for 20 minutes, at room temperature, protected from light. […]
An experiment as described above was performed with CD14+ circulating monocytes from 6 ALS patients, 1 multiple sclerosis (MS) patient and 1 normal (non-ALS) control subject. In this experiment, the cells from a patient were incubated with or without polyamine analog SL-11047 for 6 days and survival of CD14+ cells was determined. […]

CCNCCCNC/C=C\CNCCCNCC.Cl.Cl.Cl.Cl [SL-11047, N,N′-bis(3-ethylaminopropyl)-cis-but-2-ene-1,4-diamine tetrahydrochloride]
susceptibility to killing (percentage of CD14+ cells killed): substantially more susceptible to killing
